Source: US6673576B1, “Process for producing nucleic acids” (priority 1995, dated 2004)

Tests used:
[1] = target: T1, inosine-guanosine kinase derived from Exiguobacterium acetylicum (Exiguobacterium acetylicum, UniProt O24767); assay: Phosphate donor specificity (nucleoside triphosphates) of the purified kinase; type: biochemical; details: for use as phosphate donor (in words): 5 mM nucleoside triphosphate; for Relative activity: Nucleoside triphosphate (5 mM) instead of ATP, ATP = 100
Experimental: (§1) Fifty microliter of this reaction mixture was used as a basic composition and the reaction was carried out at 30° C. for 10 minutes. The enzyme had the following properties.
The reaction was performed by using 5 mM of each of various nucleoside triphosphates instead of ATP, and the possible phosphate donors were examined.

[2] = target: T1, inosine-guanosine kinase derived from Exiguobacterium acetylicum; assay: Substrate specificity (nucleoside as phosphate receptor) of the purified kinase; type: biochemical; details: for Relative activity: Nucleoside (0.5 mM) instead of guanosine, [γ-32P]-ATP, guanosine = 100; for use as phosphate receptor (in words): 0.5 mM nucleoside
Experimental: as §1
The reaction was performed by using 0.5 mM of each of various nucleosides instead of guanosine and [Υ-^32P]-ATP instead of ATP. The thus-formed nucleoside 5′-phosphate was measured.

[3] = target: T1, inosine-guanosine kinase derived from Exiguobacterium acetylicum; assay: Effect of metal ions on the purified kinase; type: biochemical; details: for Relative activity: Metal salts (1 mM) present in the reaction mixture, not added = 100; for inhibition of the enzyme by metal ions (in words): 1 mM metal ions
Experimental: as §1

[4] = target: T1, inosine-guanosine kinase derived from Exiguobacterium acetylicum; assay: Metal requirement of the purified kinase; type: biochemical; details: for Relative activity: Metal salts (5 mM) instead of magnesium chloride, MgCl2 = 100; for metal requirement (in words): metal ions replacing magnesium chloride
Experimental: as §1
The reaction was performed by changing magnesium chloride to various metal ions in the reaction solution.

[5] = pH and temperature optimum and stability of the purified kinase; type: biochemical, Exiguobacterium acetylicum
Experimental: as §1
The reaction was performed by changing the buffer to 100 mM of sodium acetate-acetic acid buffer (pH 4.2-5.6), 2-morphorinoethanesulfonic acid (hereinafter referred to as “MES”)-sodium hydroxide buffer (pH 5.4-6.3), 3-morphorinopropanesulfonic acid (MOPS)-sodium hydroxide buffer (pH 6.3-7.2), Tris-hydrochloride buffer (pH 7.2-8.8), cyclohexylaminopropanesulfonic acid (hereinafter referred to as “CAPS”)- sodium hydroxide buffer (pH 8.8-10.4) or glycine-sodium hydroxide buffer (pH 10.3-11.0). The optimum pH was between 7.7 and 9.9.
The enzyme was treated at room temperature for 30 minutes with 250 mM sodium acetate-acetate buffer ([…]), MES-sodium hydroxide buffer (pH 5.4-6.4), MOPS-sodium hydroxide buffer (pH 6.3-7.3), Tris-hydrochloride buffer (pH 7.2-8.8), CAPS-sodium hydroxide buffer (pH 8.9-10.4) or glycine-sodium hydroxide buffer (pH 10.5-13.3), each containing 2.5 mg/ml of bovine- serum albumin, 25 mM potassium chloride, 0.25 mM dithiothreitol and 5% glycerol. Then, the activity of the enzyme was measured. As a result, the activity of the enzyme was stable within the pH range between 6.7 and 12.1
The reaction was performed within the temperature range between 16° C. and 60° C. […]

[6] = substrate: Nc1nc2c(ncn2[C@@H]2O[C@H](CO)[C@@H](O)[C@H]2O)c(=O)[nH]1; assay: Km values of the purified kinase; type: biochemical, Exiguobacterium acetylicum; details: other: substrate concentration varied; pH 7.5; 30.0 °C
Experimental: as §1

[7] = substrate: OC[C@H]1O[C@@H](n2cnc3c(O)ncnc32)[C@H](O)[C@@H]1O; assay: Km values of the purified kinase; type: biochemical, Exiguobacterium acetylicum; details: other: substrate concentration varied; pH 7.5; 30.0 °C
Experimental: as §1

[8] = substrate: Nc1ncnc2c1ncn2[C@@H]1O[C@H](COP(=O)(O)OP(=O)(O)OP(=O)(O)O)[C@@H](O)[C@H]1O; assay: Km values of the purified kinase; type: biochemical, Exiguobacterium acetylicum; details: other: for ATP when guanosine was used as a substrate; pH 7.5; 30.0 °C
Experimental: as §1

What does the source list for Nc1ncnc2c1ncn2[C@H]1C[C@H](O)[C@@H](COP(=O)(O)OP(=O)(O)OP(=O)(O)O)O1 [2′-deoxyadenosine triphosphate]?
use as phosphate donor (in words) [1]: used as the phosphate donor; Relative activity [1]: 71%

Which Relative activity [2] does the source give for Nc1ncnc2c1ncn2[C@H]1C[C@H](O)[C@@H](CO)O1 [2′-deoxyadenosine] here?
Its Relative activity is 0%.

Which results are given for Nc1nc2c(ncn2[C@H]2C[C@H](O)[C@@H](COP(=O)(O)OP(=O)(O)OP(=O)(O)O)O2)c(=O)[nH]1 [2′-deoxyguanosine triphosphate]?
use as phosphate donor (in words) [1]: used as the phosphate donor; Relative activity [1]: 61%

With Nc1nc2c(ncn2[C@H]2C[C@H](O)[C@@H](CO)O2)c(=O)[nH]1 [2′-deoxyguanosine] as the molecule, how does the “use as phosphate receptor (in words)” value [2] read?
Its value is “used as a phosphate receptor”.

What about the Relative activity [2] of the same molecule?
The Relative activity was 4%.

With [Ba+2].[Cl-].[Cl-] [BaCl2] as the molecule, how does the Relative activity [3] read?
The Relative activity was 106%.

With O.O.[Ca+2].[Cl-].[Cl-] [CaCl2.2H2O] as the molecule, how does the Relative activity [3] read?
Its Relative activity is 71%.

What about the Relative activity [4] of the same molecule?
The Relative activity was 1%.

Which “inhibition of the enzyme by metal ions (in words)” value (“inhibition of the enzyme” for short) [3] does the source give for [Cl][Cd][Cl] [CdCl2] here?
Its value is “also inhibited”.

And the Relative activity [3]?
Its Relative activity is 43%.

Which results are given for O.O.O.O.O.O.[Cl-].[Cl-].[Co+2] [CoCl2.6H2O]?
Relative activity [3]: 103%; Relative activity [4]: 36%; metal requirement (in words) [4]: the reaction proceeded

For O.O.[Cl][Cu][Cl] [CuCl2.2H2O], which “inhibition of the enzyme” value [3] is on record?
The value was “strongly inhibited”.

What about the Relative activity [3] of the same molecule?
Its Relative activity is 25%.

Which Relative activity [3] does the source give for O.O.O.O.O.O.O.O=S(=O)([O-])[O-].[Fe+2] [FeSO4.7H2O] here?
Its Relative activity is 95%.

And the Relative activity [4]?
Its Relative activity is 24%.

What about the “metal requirement (in words)” value [4] of the same molecule?
Its value is “the reaction proceeded”.

Which results are given for [Cl][Hg][Cl] [HgCl2]?
inhibition of the enzyme by metal ions (in words) [3]: strongly inhibited; Relative activity [3]: 22%

With O.O.O.O.O.O.[Cl-].[Cl-].[Mg+2] [MgCl2.6H2O] as the molecule, how does the Relative activity [4] read?
Its Relative activity is 100%.

What about the “metal requirement (in words)” value [4] of the same molecule?
The value was “the reaction proceeded”.

Which Relative activity [3] does the source give for O.O.O.O.O.O.O.O=S(=O)([O-])[O-].[Mg+2] [MgSO4.7H2O] here?
Its Relative activity is 110%.

And the Relative activity [4]?
The Relative activity was 107%.

For O.O.O.O.[Cl][Mn][Cl] [MnCl2.4H2O], which Relative activity [3] is on record?
Its Relative activity is 81%.

And the Relative activity [4]?
The Relative activity was 55%.

What about the “metal requirement (in words)” value [4] of the same molecule?
Its value is “the reaction proceeded”.

For O.O.O.O.O.O.[Cl][Ni][Cl] [NiCl2.6H2O], which Relative activity [3] is on record?
The Relative activity was 113%.

What about the Relative activity [4] of the same molecule?
The Relative activity was 1%.

Which “inhibition of the enzyme” value [3] does the source give for [Cl-].[Cl-].[Zn+2] [ZnCl2] here?
Its value is “also inhibited”.

And the Relative activity [3]?
Its Relative activity is 58%.

What about the Relative activity [4] of the same molecule?
Its Relative activity is 1%.

With Nc1ncnc2c1ncn2[C@@H]1O[C@H](COP(=O)(O)OP(=O)(O)OP(=O)(O)O)[C@@H](O)[C@H]1O [adenosine triphosphate] as the molecule, how does the “use as phosphate donor (in words)” value [1] read?
The value was “used as the phosphate donor”.

And the Relative activity [1]?
The Relative activity was 100%.

For Nc1ncnc2c1ncn2[C@@H]1O[C@H](CO)[C@@H](O)[C@H]1O [adenosine], which Relative activity [2] is on record?
The Relative activity was 0%.

With Nc1ccn([C@@H]2O[C@H](COP(=O)(O)OP(=O)(O)OP(=O)(O)O)[C@@H](O)[C@H]2O)c(=O)n1 [cytidine triphosphate] as the molecule, how does the Relative activity [1] read?
The Relative activity was 6%.

What does the source list for Nc1nc2c(ncn2[C@@H]2O[C@H](COP(=O)(O)OP(=O)(O)OP(=O)(O)O)[C@@H](O)[C@H]2O)c(=O)[nH]1 [guanosine triphosphate]?
use as phosphate donor (in words) [1]: used as the phosphate donor; Relative activity [1]: 59%

What does the source list for Nc1nc2c(ncn2[C@@H]2O[C@H](CO)[C@@H](O)[C@H]2O)c(=O)[nH]1 [guanosine]?
use as phosphate receptor (in words) [2]: used as a phosphate receptor; Relative activity [2]: 100%

What does the source list for OC[C@H]1O[C@@H](n2cnc3c(O)ncnc32)[C@H](O)[C@@H]1O [inosine]?
use as phosphate receptor (in words) [2]: used as a phosphate receptor; Relative activity [2]: 5%

Which Relative activity [1] does the source give for O=c1ccn([C@@H]2O[C@H](COP(=O)(O)OP(=O)(O)OP(=O)(O)O)[C@@H](O)[C@H]2O)c(=O)[nH]1 [uridine triphosphate] here?
The Relative activity was 4%.

For O=c1[nH]c(=O)c2ncn([C@@H]3O[C@H](CO)[C@@H](O)[C@H]3O)c2[nH]1 [xanthosine], which Relative activity [2] is on record?
Its Relative activity is 0%.

B1: inosine-guanosine kinase derived from Exiguobacterium acetylicum (Exiguobacterium acetylicum) (protein)
chain: MNKIAVIGKVFVDIKGTSFAPLHKDAKNVGDITFSNGGTGRNVAQNLAVLGNEVRFISTVTNDQIGVGVLDELKSYGANVDHVEMLEDHGMGMWLAVMDNEGDLQTSISKQPDAKLLEEAILRQSIYALDGVDAVAIDLDLSVTVLERLIHLCRKMELPLFGVCGHLSVIERNRHLLQGFTGFICSREEAEILSDLSIVTVEDAIHVANELAKKGAPFTVVTMSELGAVYVDRRTATSGHVGTKKVKVVDSTGAGDSFFSAVLSELTQEKSAEEALKLGMKVAAEVIASTENGLVPEMLDALQ
Which results are given for B1?
residual activity maintained ([5]; treatment at 25° C. or lower for 30 minutes): ≥ 50%; temperature at which the enzyme was inactivated ([5]; treatment for 30 minutes at 4 to 60° C.): ≥ 40 °C; Km [6]: 30 µM; Km [7]: 1000 µM; Km [8]: 1600 µM
